Counter-ions that a name gives are not always drawn.
What follows are compounds tested against T1, serotonin 4 receptor (5-HT4) (Cavia porcellus, UniProt O70528) (assay: Stimulating activity on serotonin 4 receptor (twitch response in guinea pig ileum)). Conditions: not given.
T1 construct: from tissue; host or cells: longitudinal muscle strips of guinea pig ileum (Harley guinea pigs)
Format: cell-based
Method: Stimulating activity on serotonin 4 receptor
From Harley guinea pigs weighing 250 to 400 g, a section of ileum 10 to 20 cm proximal to the ileocecal junction was removed. Longitudinal muscle strips obtained from the ileum were used for this assay. The preparations were suspended in Krebs' solution at 32 to 34° C., bubbled continuously with 95% O2 and 5% CO2, and subjected to initial tension of about 0.8 g. Responses were recorded isometrically. Twitch responses were evoked by electrical stimulation (0.2 Hz, 1 msec pulse duration). The preparations were stimulated at supramaximal voltage for 2 to 3 hours, and were then allowed to equilibrate for about 1 hour at submaximal voltage. […] The preparations were left for at least 45 minutes before cumulative addition of each agonist.
The quinolinecarboxylic acid derivatives of the present invention were employed as sample compounds. For comparison, the following compounds were employed. These compounds were diluted by dissolving them in distilled water or in DMSO.
The data obtained was analyzed by RS1 (BBN Software Product Co.).

T1 sequence (O70528 whole entry): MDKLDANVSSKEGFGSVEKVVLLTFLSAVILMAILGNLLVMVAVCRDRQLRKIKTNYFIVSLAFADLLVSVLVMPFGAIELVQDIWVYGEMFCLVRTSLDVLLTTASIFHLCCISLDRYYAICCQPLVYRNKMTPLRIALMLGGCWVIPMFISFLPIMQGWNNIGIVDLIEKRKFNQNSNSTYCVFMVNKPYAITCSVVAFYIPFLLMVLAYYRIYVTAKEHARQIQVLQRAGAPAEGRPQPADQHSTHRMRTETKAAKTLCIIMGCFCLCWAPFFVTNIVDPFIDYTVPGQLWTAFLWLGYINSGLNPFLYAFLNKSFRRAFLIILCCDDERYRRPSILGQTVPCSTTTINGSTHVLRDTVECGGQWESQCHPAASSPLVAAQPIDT

Going from `CC(=O)CCCN1[C@@H]2CC[C@H]1C[C@@H](OC(=O)c1cc3ccccc3n(C(C)C)c1=O)C2` [Compound 53, Endo-8-(4-oxopentyl)-8-azabicyclo[3.2.1]oct-3-yl 1-isopropyl-2-oxo-1,2-dihydro-3-quinolinecarboxylate hydrochloride] to `CC(C)n1c(=O)c(C(=O)OC2CC3CCC(C2)N3CCCO)cc2ccccc21` (stereo not drawn) [Compound 38, Endo-8-(3-hydroxypropyl)-8-azabicyclo[3.2.1]oct-3-yl 1-isopropyl-2-oxo-1,2-dihydro-3-quinolinecarboxylate], the EC50 falls from 26.4 nM to 11.9 nM (2.2-fold).

Compared with `CC(C)n1c(=O)c(C(=O)NC2CC3CCC(C2)N3CCS(=O)(=O)c2ccccc2)cc2ccccc21` (stereo not drawn) [Compound 19, Endo-N-(8-(2-(phenylsulfonyl)ethyl)-8-azabicyclo[3.2.1]oct-3-yl)-1-isopropyl-2-oxo-1,2-dihydro-3-quinolinecarboxamide], `CC(C)n1c(=O)c(C(=O)O[C@H]2C[C@H]3CC[C@@H](C2)N3CCS(=O)(=O)c2ccccc2)cc2ccccc21` [Compound 46, Endo-8-(2-(phenylsulfonyl)ethyl)-8-azabicyclo[3.2.1]oct-3-yl 1-isopropyl-2-oxo-1,2-dihydro-3-quinolinecarboxylate] is 1.9-fold lower in EC50: 86.6 nM for the first, 46.5 nM for the second. The second is the more potent here.

`CC(C)n1c(=O)c(C(=O)NC2CC3CCC(C2)N3CCCCCCO)cc2ccccc21` (stereo not drawn) [Compound 8, Endo-N-(8-(6-hydroxyhexyl)-8-azabicyclo[3.2.1]oct-3-yl)-1-isopropyl-2-oxo-1,2-dihydro-3-quinolinecarboxamide hydrochloride] and `CC(C)n1c(=O)c(C(=O)NC2CC3CCC(C2)N3CCO)cc2ccccc21` (stereo not drawn) [Compound 4, Endo-N-(8-(2-hydroxyethyl)-8-azabicyclo[3.2.1]oct-3-yl)-1-isopropyl-2-oxo-1,2-dihydro-3-quinolinecarboxamide] are within 1.5-fold of each other in EC50: 62.3 nM for the first, 45.9 nM for the second.

`CC(=O)CN1[C@@H]2CC[C@H]1C[C@@H](OC(=O)c1cc3ccccc3n(C(C)C)c1=O)C2` [Compound 52, Endo-8-(2-oxopropyl)-8-azabicyclo[3.2.1]oct-3-yl 1-isopropyl-2-oxo-1,2-dihydro-3-quinolinecarboxylate hydrochloride] and `CC(C)n1c(=O)c(C(=O)O[C@H]2C[C@H]3CC[C@@H](C2)N3CC(N)=O)cc2ccccc21` [Compound 56, Endo-8-carbamoylmethyl-8-azabicyclo[3.2.1]oct-3-yl 1-isopropyl-2-oxo-1,2-dihydro-3-quinolinecarboxylate] are within 1.5-fold of each other in EC50: 24.6 nM for the first, 31.4 nM for the second.

Going from `CCOC(=O)CCCN1C2CCC1CC(NC(=O)c1cc3ccccc3n(C(C)C)c1=O)C2` (stereo not drawn) [Compound 27, Endo-N-(8-(3-(ethoxycarbonyl)propyl)-8-azabicyclo[3.2.1]oct-3-yl)-1-isopropyl-2-oxo-1,2-dihydro-3-quinolinecarboxamide hydrochloride] to `CC(=O)CCCN1C2CCC1CC(NC(=O)c1cc3ccccc3n(C(C)C)c1=O)C2` (stereo not drawn) [Compound 31, Endo-N-(8-(4-oxopentyl)-8-azabicyclo[3.2.1]oct-3-yl)-1-isopropyl-2-oxo-1,2-dihydro-3-quinolinecarboxamide], the EC50 rises from 19.3 nM to 52.3 nM (2.7-fold). The first is the more potent here.

First: CC(C)n1c(=O)c(C(=O)OC2CC3CCC(C2)N3CCCCO)cc2ccccc21 (stereo not drawn) [Compound 39, Endo-8-(4-hydroxybutyl)-8-azabicyclo[3.2.1]oct-3-yl 1-isopropyl-2-oxo-1,2-dihydro-3-quinolinecarboxylate hydrochloride]
Second: CC(C)n1c(=O)c(C(=O)OC2CC3CCC(C2)N3CCCCCO)cc2ccccc21 (stereo not drawn) [Compound 40, Endo-8-(5-hydroxypentyl)-8-azabicyclo[3.2.1]oct-3-yl 1-isopropyl-2-oxo-1,2-dihydro-3-quinolinecarboxylate hydrochloride]
The EC50 of the first is 1.5-fold lower: 16.6 nM for the first, 25.5 nM for the second. The first is the more potent here.

Going from `CC(C)n1c(=O)c(C(=O)NC2CC3CCC(C2)N3CC(=O)O)cc2ccccc21` (stereo not drawn) [Compound 26, Endo-N-(8-(carboxymethyl)-8-azabicyclo[3.2.1]oct-3-yl)-1-isopropyl-2-oxo-1,2-dihydro-3-quinolinecarboxamide] to `CC(=O)CN1C2CCC1CC(NC(=O)c1cc3ccccc3n(C(C)C)c1=O)C2` (stereo not drawn) [Compound 30, Endo-N-(8-(2-oxopropyl)-8-azabicyclo[3.2.1]oct-3-yl)-1-isopropyl-2-oxo-1,2-dihydro-3-quinolinecarboxamide hydrochloride], the EC50 falls from 66.1 nM to 11.5 nM (5.7-fold).

`CC(C)n1c(=O)c(C(=O)O[C@H]2C[C@H]3CC[C@@H](C2)N3CCN2CCOCC2)cc2ccccc21` [Compound 47, Endo-8-(2-morpholinoethyl)-8-azabicyclo[3.2.1]oct-3-yl 1-isopropyl-2-oxo-1,2-dihydro-3-quinoline-carboxylate dihydrochloride] and `CSCCN1[C@@H]2CC[C@H]1C[C@@H](OC(=O)c1cc3ccccc3n(C(C)C)c1=O)C2` [Compound 45, Endo-8-(2-(methylthio)ethyl)-8-azabicyclo[3.2.1]oct-3-yl 1-isopropyl-2-oxo-1,2-dihydro-3-quinolinecarboxylate] are within 1.5-fold of each other in EC50: 30.8 nM for the first, 29.5 nM for the second.

`CC(C)n1c(=O)c(C(=O)NC2CC3CCC(C2)N3CCCC(=O)O)cc2ccccc21` (stereo not drawn) [Compound 28, Endo-N-(8-(3-carboxypropyl)-8-azabicyclo[3.2.1]oct-3-yl)-1-isopropyl-2-oxo-1,2-dihydro-3-quinolinecarboxamide] and `CC(C)n1c(=O)c(C(=O)NC2CC3CCC(C2)N3CC(N)=O)cc2ccccc21` (stereo not drawn) [Compound 34, Endo-N-(8-carbamoylmethyl-8-azabicyclo[3.2.1]oct-3-yl)-1-isopropyl-2-oxo-1,2-dihydro-3-quinolinecarboxamide] are within 1.5-fold of each other in EC50: 91.4 nM for the first, 61.9 nM for the second.

Compared with `CC(C)n1c(=O)c(C(=O)O[C@H]2C[C@H]3CC[C@@H](C2)N3CC2CCCCO2)cc2ccccc21` (stereo partly drawn) [Compound 48, Endo-8-(tetrahydropyran-2-methyl)-8-azabicyclo[3.2.1]oct-3-yl 1-isopropyl-2-oxo-1,2-dihydro-3-quinolinecarboxylate hydrochloride], `COCCN1[C@@H]2CC[C@H]1C[C@@H](OC(=O)c1cc3ccccc3n(C(C)C)c1=O)C2` [Compound 42, Endo-8-(2-methoxyethyl)-8-azabicyclo[3.2.1]oct-3-yl 1-isopropyl-2-oxo-1,2-dihydro-3-quinolinecarboxylate hydrochloride] is 3-fold lower in EC50: 55.9 nM for the first, 18.4 nM for the second. The second is the more potent here.

Going from `C=CCN1C2CCC1CC(NC(=O)c1cc3ccccc3n(C(C)C)c1=O)C2` (stereo not drawn) [Compound 1, endo-N-(8-(2-propenyl)-8-azabicyclo[3.2.1]oct-3-yl)-1-isopropyl-2-oxo-1,2-dihydro-3-quinolinecarboxamide] to `CC(C)n1c(=O)c(C(=O)O[C@H]2C[C@H]3CC[C@@H](C2)N3CCC#N)cc2ccccc21` [Compound 55, Endo-8-(2-cyanoethyl)-8-azabicyclo[3.2.1]oct-3-yl 1-isopropyl-2-oxo-1,2-dihydro-3-quinolinecarboxylate], the EC50 falls from 59.2 nM to 27.3 nM (2.2-fold). The second is the more potent here.

Going from `CCN(CC)CCN1[C@@H]2CC[C@H]1C[C@@H](OC(=O)c1cc3ccccc3n(C(C)C)c1=O)C2` [Compound 44, Endo-8-(2-diethylaminoethyl)-8-azabicyclo[3.2.1]oct-3-yl 1-isopropyl-2-oxo-1,2-dihydro-3-quinolinecarboxylate dihydrochloride] to `CCOCCN1[C@@H]2CC[C@H]1C[C@@H](OC(=O)c1cc3ccccc3n(C(C)C)c1=O)C2` [Compound 43, Endo-8-(2-ethoxyethyl)-8-azabicyclo[3.2.1]oct-3-yl 1-isopropyl-2-oxo-1,2-dihydro-3-quinolinecarboxylate hydrochloride], the EC50 falls from 72.6 nM to 15.2 nM (4.8-fold). The second is the more potent here.

`COCCOCCN1[C@@H]2CC[C@H]1C[C@@H](OC(=O)c1cc3ccccc3n(C(C)C)c1=O)C2` [Compound 59, Endo-8-(2-(2-methoxyethoxy)ethyl)-8-azabicyclo[3.2.1]oct-3-yl 1-isopropyl-2-oxo-1,2-dihydro-3-quinolinecarboxylate hydrochloride] and `CC(C)n1c(=O)c(C(=O)O[C@H]2C[C@H]3CC[C@@H](C2)N3CCCCCCO)cc2ccccc21` [Compound 41, Endo-8-(6-hydroxyhexyl)-8-azabicyclo[3.2.1]oct-3-yl 1-isopropyl-2-oxo-1,2-dihydro-3-quinolinecarboxylate hydrochloride] are within 1.5-fold of each other in EC50: 73.7 nM for the first, 50.9 nM for the second.

Same assay, conditions: twitch response in guinea pig ileum; maximum contraction of sample compound = 100%; read-out: ED50 (concentration enhancing the twitch response by 50%)

`CCCCn1c(=O)c(C(=O)N[C@H]2C[C@H]3CC[C@@H](C2)N3C)c(O)c2ccccc21` [Comparative Compound 4, reference compound] and `CN1[C@@H]2CC[C@H]1C[C@@H](NC(=O)c1cc3ccccc3[nH]c1=O)C2` [Comparative Compound 2, reference compound] cannot be ordered by EC50: over 3000 nM for the first, over 3000 nM for the second.

Compared with `CN1[C@@H]2CC[C@H]1C[C@@H](OC(=O)c1cc3ccccc3[nH]c1=O)C2` [Comparative Compound 3, reference compound], `CC(C)n1c(=O)c(C(=O)O[C@H]2C[C@H]3CC[C@@H](C2)N3c2nccs2)cc2ccccc21` [Compound 58, endo-8-(2-thiazolyl)-8-azabicyclo[3.2.1]oct-3-yl 1-isopropyl-2-oxo-1,2-dihydro-3-quinolinecarboxylate hydrochloride, reference compound] is lower in EC50: over 3000 nM for the first, 1140 nM for the second. The second is the more potent here.

`COc1ccc(N2[C@@H]3CC[C@H]2C[C@@H](OC(=O)c2cc4ccccc4n(C(C)C)c2=O)C3)cc1` [Compound 57, endo-8-(4-methoxyphenyl)-8-azabicyclo[3.2.1]oct-3-yl 1-isopropyl-2-oxo-1,2-dihydro-3-quinolinecarboxylate, reference compound] was tested, and the EC50 was over 3000 nM.

Source: patent publication US5753673A, “Quinolinecarboxylic acid derivatives” (Taisho Pharmaceutical Co., Ltd., priority 1994, dated 1998)
